In brackets after ≈: the same amount, converted by molar mass.
Columns and labels:
Type in all cases: cell-based
[1] = tested on: Escherichia coli NCTC 8196; experiment: Minimum inhibitory concentration (MIC) in microtitre plates; conditions: for Minimum inhibitory concentration (MIC) E. coli: Table 7, 48 hours at 37° C., MIC = ≦20% growth compared to control; for Minimum inhibitory concentration (MIC) E. coli NCTC 8196: Table 8, * = significant inhibition of growth, but not complete inhibition
In short: (§1)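 Compounds in DMSO, 1:2 dilution series; bacteria at 1–5×10^6 CFU/ml diluted 1:100 in CASO broth. Incubation 48 h at 37° C, growth read as OD 620 nm. MIC is the lowest concentration giving ≤20% growth relative to control; duplicates.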

[2] = tested on: Staphylococcus hominis DMS 20328; experiment: as above; conditions: Table 7; 48 hours at 37° C.; MIC = ≦20% growth compared to control
In short: as §1

[3] = tested on: Aspergillus niger ATCC 6275; experiment: Minimum inhibitory concentration (MIC), further microorganisms; conditions: Table 8; * = significant inhibition of growth, but not complete inhibition
In short: (§2)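 Organisms at 1–5×10^6 CFU/ml were diluted 1:100 into CASO broth (bacteria, yeast) or Sabouraud 2% glucose broth (mould) over 1:2 DMSO dilution series of compound. Bacteria and yeast were incubated 48 h at 37 °C and mould 5 days at 28 °C. MIC is the lowest concentration giving ≤20% growth versus control by OD620, in duplicate.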

[4] = tested on: Candida albicans ATCC 10231; experiment: as above; conditions: Table 8; * = significant inhibition of growth, but not complete inhibition
In short: as §2

[5] = tested on: Enterococcus hirae ATCC 10541; experiment: as above; conditions: Table 8; * = significant inhibition of growth, but not complete inhibition
In short: as §2

[6] = tested on: Epidermophyton floccosum DSM 10709; experiment: as above; conditions: Table 8; * = significant inhibition of growth, but not complete inhibition
In short: as §2

[7] = tested on: Klebsiella pneumonia ATCC 4352; experiment: as above; conditions: Table 8; * = significant inhibition of growth, but not complete inhibition
In short: as §2

[8] = tested on: Micrococcus luteus ATCC 9341; experiment: as above; conditions: Table 8; * = significant inhibition of growth, but not complete inhibition
In short: as §2

[9] = tested on: Pseudomonas aeruginosa CIP A-22; experiment: as above; conditions: Table 8
In short: as §2

[10] = tested on: S. epidermidis ATCC 12228; experiment: as above; conditions: Table 8; * = significant inhibition of growth, but not complete inhibition
In short: as §2

[11] = tested on: Salmonella choleraesuis ATCC 10708; experiment: as above; conditions: Table 8
In short: as §2

[12] = tested on: Staphylococcus aureus ATCC 9144; experiment: as above; conditions: Table 8; * = significant inhibition of growth, but not complete inhibition
In short: as §2

[13] = tested on: Trichophyton mentagrophytes ATCC 9533; experiment: as above; conditions: Table 8; * = significant inhibition of growth, but not complete inhibition
In short: as §2

| Compound | Minimum inhibitory concentration (MIC) E. coli [1] [µg/mL] | Minimum inhibitory concentration (MIC) E. coli NCTC 8196 [1] [µg/mL] | Minimum inhibitory concentration (MIC) S. hominis [2] [µg/mL] | Minimum inhibitory concentration (MIC) Aspergillus niger ATCC 6275 [3] | Minimum inhibitory concentration (MIC) Candida albicans ATCC 10231 [4] | Minimum inhibitory concentration (MIC) Enterococcus hirae ATCC 10541 [5] [µg/mL] | Minimum inhibitory concentration (MIC) Epidermophyton floccosum DSM 10709 [6] | Minimum inhibitory concentration (MIC) Klebsiella pneumonia ATCC 4352 [7] | Minimum inhibitory concentration (MIC) Micrococcus luteus ATCC 9341 [8] | Minimum inhibitory concentration (MIC) Pseudomonas aeruginosa CIP A-22 [9] [µg/mL] | Minimum inhibitory concentration (MIC) S. epidermidis ATCC 12228 [10] | Minimum inhibitory concentration (MIC) Salmonella choleraesuis ATCC 10708 [11] [µg/mL] | Minimum inhibitory concentration (MIC) Staphylococcus aureus ATCC 9144 [12] | Minimum inhibitory concentration (MIC) Trichophyton mentagrophytes ATCC 9533 [13] |
| --- | --- | --- | --- | --- | --- | --- | --- | --- | --- | --- | --- | --- | --- | --- |
| NCCCCCCCCCNc1cc(C(F)(F)F)nc(-c2ccccn2)n1 [compound 30] | 120 (≈ 315 µM) | >60 | 120 (≈ 315 µM) | >60 µg/mL | >60 µg/mL | >60 | >60 µg/mL | >60 µg/mL | 60 µg/mL (≈ 157 µM) | >60 | >60 µg/mL | >60 | >60 µg/mL | >60 µg/mL |
| CC(C)c1cc(NCCCCCCCCCN)nc(-c2ccccn2)n1 [compound 42] | 120 (≈ 338 µM) | >60 | 30 (≈ 84.4 µM) | >60 µg/mL | >60 µg/mL | >60 | >60 µg/mL | >60 µg/mL | *15 μg/mL | >60 | 60 µg/mL (≈ 169 µM) | >60 | 60 µg/mL (≈ 169 µM) | >60 µg/mL |
| CCCCCCCCCCCCNc1cc(C(C)C)nc(-c2ccccn2)n1 [compound 48] | 120 (≈ 314 µM) | >60 | 3.75 (≈ 9.8 µM) | >60 µg/mL | *15 μg/mL | <3.75 | *60 μg/mL | >60 µg/mL | <3.75 µg/mL | >60 | <3.75 µg/mL | >60 | <3.75 µg/mL | *60 μg/mL |
| CC(C)(C)c1cc(NCCCCCCCCCN)nc(-c2ccccn2)n1 [compound 54] | 120 (≈ 325 µM) | >60 | 30 (≈ 81.2 µM) | >60 µg/mL | >60 µg/mL | >60 | >60 µg/mL | >60 µg/mL | 15 µg/mL (≈ 40.6 µM) | >60 | >60 µg/mL | >60 | *60 μg/mL | >60 µg/mL |
| CCCCCCCCCCCCNc1cc(C(C)(C)C)nc(-c2ccccn2)n1 [compound 60] | 120 (≈ 303 µM) | >60 | 3.75 (≈ 9.45 µM) | 60 µg/mL (≈ 151 µM) | >60 µg/mL | 7.5 (≈ 18.9 µM) | >60 µg/mL | >60 µg/mL | <3.75 µg/mL | >60 | *7.5 μg/mL | >60 | 15 µg/mL (≈ 37.8 µM) | >60 µg/mL |
| Cc1nc(-c2ccccn2)nc(NCCCCCCCCN)c1C(C)C [compound 65] | 120 (≈ 338 µM) | >60 | 30 (≈ 84.4 µM) | >60 µg/mL | >60 µg/mL | >60 | >60 µg/mL | >60 µg/mL | >60 µg/mL | >60 | >60 µg/mL | >60 | >60 µg/mL | >60 µg/mL |
| Cc1nc(-c2ccccn2)nc(NCCCCCCCCCN)c1C(C)C [compound 66] | 30 (≈ 81.2 µM) | >60 | 3.75 (≈ 10.1 µM) | >60 µg/mL | >60 µg/mL | >60 | >60 µg/mL | >60 µg/mL | *30 μg/mL | >60 | 60 µg/mL (≈ 162 µM) | >60 | 60 µg/mL (≈ 162 µM) | >60 µg/mL |
| CCCCCCCCNc1nc(-c2ccccn2)nc(C)c1C(C)C [compound 69] | 120 (≈ 352 µM) | >60 | 3.75 (≈ 11 µM) | *60 μg/mL | 60 µg/mL (≈ 176 µM) | 3.75 (≈ 11 µM) | 15 µg/mL (≈ 44.1 µM) | *60 μg/mL | <3.75 µg/mL | >60 | 7.5 µg/mL (≈ 22 µM) | >60 | 7.5 µg/mL (≈ 22 µM) | *15 μg/mL |

Reference: patent publication US7015228B2, “4-amino-2-(2-pyridyl)pyrimidines as microbicidal active substances” (Ciba Specialty Chemicals Corporation, priority 2001, dated 2006)
